For 50 molecules, IC90 results are on record in PubChem BioAssay AID2842 (Southern Research Institute, 2010).

As a reminder, the IC90 is the concentration needed for an effect of 90%.

Molecules are shown by their SMILES. ≈ marks a conversion by molar mass, not a printed value. A value given as a limit tells only on which side of the number the result lay.

This assay has as its system M. tuberculosis H37Rv growth inhibition. In words: Mycobacterium tuberculosis H37Rv growth inhibition, putative kinase inhibitor library, confirmatory dose response (AID 2842).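 Further: bacteria incubated one week before Alamar blue readout.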

In the case of `CSc1cccc2sc(Nc3cccc(Br)c3)nc12`, the IC90 is 6.73 µg/mL (≈ 19.2 µM). The same measure for `COC(=O)c1ccc(NC(=O)CSc2nc(-c3cccc(C)c3)ns2)cc1`: < 0.2 µg/mL; for `CC(=O)N1CCc2c(sc(NC(=O)c3ccc(-c4ccccc4)cc3)c2C(N)=O)C1`: 20.4 µg/mL (≈ 48.7 µM); for `Cc1ccc(-c2[nH]c3ccccc3c2SCCNC(=O)c2cc3ccccc3oc2=O)cc1`: 4 µg/mL (≈ 8.8 µM). On to `Cc1ccc(C)c(-c2nnc(NC(=O)c3ccc(S(=O)(=O)N(C)C4CCCCC4)cc3)o2)c1`, for which the IC90 is 58.3 µg/mL (≈ 124 µM). The same measure for `O=C(Nc1nnc(-c2ccncc2)o1)c1ccc(F)cc1`: 3.23 µg/mL (≈ 11.4 µM); for `Cc1ccc2nc(NNC(=O)c3nc4ccccc4s3)sc2c1`: 6.73 µg/mL (≈ 19.8 µM); for `CSc1nnc(C)c(=O)n1COC(=O)/C=C/c1ccc2c(c1)OCO2`: 11.2 µg/mL (≈ 31 µM). Then `C=CCOC(=O)COc1ccc2cc(-c3ccccc3)c(=O)oc2c1`, with 1.22 µg/mL (≈ 3.63 µM); and `O=C(Nc1nnc(-c2cc(Cl)ccc2Cl)o1)C1=COCCO1`, with 25.7 µg/mL (≈ 75.2 µM). As for `CC1CCc2c(sc(Nc3nc4c(F)cccc4s3)c2C(N)=O)C1` (stereo not given), the IC90 is 8.58 µg/mL (≈ 23.7 µM). Then `CC(C)N1CCc2c(sc(NC(=O)c3cc4c(ccc5ccccc54)oc3=O)c2C(N)=O)C1`, with 40.2 µg/mL (≈ 87 µM). Turning to `CCCCC(=O)Nc1nnc(-c2ccc(Cl)s2)o1`, the IC90 is 3.23 µg/mL (≈ 11.3 µM). Consider `CS(=O)(=O)Nc1cccc(C2=NN(c3nc(-c4ccccc4)c4cc(Cl)ccc4n3)C(c3ccccc3F)C2)c1` (stereo not given), for which the IC90 was 6.67 µg/mL (≈ 11.7 µM). Consider `O=C1CN(C(=O)c2cccc3ccccc23)C(c2ccc(F)cc2)c2cc(Br)ccc2N1` (stereo not given), for which the IC90 is 10.2 µg/mL (≈ 20.8 µM). In the case of `N#Cc1ccc(C(=O)Nc2nnc(-c3ccc(Br)cc3)o2)cc1`, the IC90 is 7.39 µg/mL (≈ 20 µM). The same measure for `O=C(NNc1nc2c(F)cc(F)cc2s1)c1coc2ccccc2c1=O`: 3.33 µg/mL (≈ 8.92 µM). The same measure for `COc1cc(C(=O)Nc2nnc(-c3cc(Cl)ccc3Cl)o2)cc(OC)c1OC`: 28.3 µg/mL (≈ 66.7 µM); for `O=C(Nc1nnc(-c2ccc(F)cc2)o1)c1ccco1`: 2.84 µg/mL (≈ 10.4 µM).

As to `COc1cccc(C(=O)N(CCCn2ccnc2)c2nc3c(C)cccc3s2)c1OC`, the IC90 is 4.2 µg/mL (≈ 9.62 µM).

Consider `CCOC(=O)c1sc(NC(=O)CCSc2ccccc2)cc1C`, for which the IC90 was 0.82 µg/mL (≈ 2.35 µM). `CC(C)N1CCc2c(sc(NC(=O)c3ccc(S(=O)(=O)N(C)c4ccccc4)cc3)c2C(N)=O)C1`: the IC90 is 12.8 µg/mL (≈ 25 µM). Then `Cc1ccccc1C(=O)Nc1nnc(-c2ccccn2)o1`, with 15.2 µg/mL (≈ 54.2 µM); and `N#Cc1ccc(C(=O)Nc2nnc(-c3ccc(Cl)cc3)o2)cc1`, with 56.7 µg/mL (≈ 174 µM); and `CCOC(=O)c1c(NC(=O)c2cccc3ccccc23)sc2c1CCN(CC)C2`, with 5.45 µg/mL (≈ 13.3 µM). With `O=C(Nc1nnc(-c2ccc3c(c2)OCCO3)o1)C1CC1`, the 90% effect concentration (IC90) is 33.9 µg/mL (≈ 118 µM).

As for `CCOc1cc(-c2nnc(NC(=O)C3=COCCO3)o2)cc(OCC)c1OCC`, the IC90 is 7 µg/mL (≈ 17.3 µM). Then `COc1cc(C(=O)Nc2nnc(-c3ccc4c(c3)CCCC4)o2)cc(OC)c1OC`, with 44.2 µg/mL (≈ 108 µM); and `CCc1ccc(-c2nnc3c4cc5c(cc4n(Cc4ccccc4F)cc2-3)OCCO5)cc1`, with 6.34 µg/mL (≈ 14.4 µM); and `CN(C)S(=O)(=O)c1ccc(C(=O)N2CC(=O)Nc3ccc(Br)cc3C2c2ccccc2)cc1` (stereo not given), with 35.3 µg/mL (≈ 66.8 µM). In the case of `Cc1c(C)n2c3c(=O)[nH]c(=O)n(C)c3nc2n1CCCNc1ccccc1Cl`, the IC90 was 25.4 µg/mL (≈ 63.4 µM). Then `O=C(OCc1ccco1)c1cc2ccccc2oc1=O`, with 20.4 µg/mL (≈ 75.3 µM). Then `COc1ccc(Cl)c2sc(N(CCCn3ccnc3)C(=O)Cc3ccccc3)nc12`, with 1.65 µg/mL (≈ 3.74 µM).

On to `Cc1cccc(C(=O)Nc2nnc(-c3ccc(C)cc3C)o2)c1`, for which the IC90 was 9.06 µg/mL (≈ 29.5 µM).

As to `Cc1ccc2sc(N(CCCn3ccnc3)C(=O)c3cccs3)nc2c1C`, the IC90 was 0.54 µg/mL (≈ 1.36 µM).

Turning to `O=C(NCCSc1c(-c2ccccc2)[nH]c2ccccc12)c1cc2ccccc2oc1=O`, the IC90 was 2.71 µg/mL (≈ 6.15 µM).

On to `Cc1ccc(/C(O)=C2\C(=O)C(=O)N(c3ccccn3)C2c2cccc(Br)c2)cc1` (stereo not given), for which the concentration for an effect of 90% (IC90) is 21.4 µg/mL (≈ 47.7 µM). Then `O=C(Nc1nnc(-c2ccc3c(c2)CCCC3)o1)c1cc(Cl)sc1Cl`, with 3.53 µg/mL (≈ 8.95 µM); and `CC1(C)Cc2c(sc(NC(=O)c3ccc(Oc4ccccc4)cc3)c2C(N)=O)C(C)(C)N1`, with 6.22 µg/mL (≈ 13.8 µM); and `Cc1ccc(-c2nnc(SCC(=O)Nc3cc(C)on3)o2)cc1`, with 3.95 µg/mL (≈ 12 µM). Then `COc1cccc(C(=O)Nc2nnc(C3=COCCO3)o2)c1`, with 4.85 µg/mL (≈ 16 µM). Then `CSc1cccc(-c2nnc(NC(=O)c3cc([N+](=O)[O-])ccc3Cl)o2)c1`, with 0.88 µg/mL (≈ 2.25 µM); and `O=c1[nH]c(CSc2ccccc2)nc2ccccc12`, with 7.54 µg/mL (≈ 28.1 µM); and `Nc1ncnc(Sc2nc3ccccc3[nH]2)c1[N+](=O)[O-]`, with 17.1 µg/mL (≈ 59.2 µM).

`c1csc(Nc2nc3cc4c(cc3s2)OCO4)n1`: the IC90 is 8.57 µg/mL (≈ 30.9 µM).

On to `O=C(Nc1nnc(-c2ccc3c(c2)CCCC3)o1)c1cccc(Cl)c1`, for which the IC90 is 8.65 µg/mL (≈ 24.4 µM). Then `COc1ccccc1-c1cnn2c(Nc3ccc(C)c(C)c3)cc(C)nc12`, with 14.4 µg/mL (≈ 40.3 µM). As for `O=C(Nc1nnc(C2=COCCO2)o1)c1ccc(Oc2ccccc2)cc1`, the IC90 was 16.8 µg/mL (≈ 46 µM). With `COc1cccc(-c2nnc(NC(=O)c3ccc(Cl)s3)o2)c1`, the IC90 was < 0.2 µg/mL. In the case of `OCCOCCNc1nc(Nc2cccc(F)c2)nc2c1cnn2-c1ccccc1`, the IC90 is 4.91 µg/mL (≈ 12 µM).
